Data set [1] has as its system AR. The data set is described as follows: Nuclear and cytoplasmic fractionation with western blot, AR nuclear localization in C4-2 cells. It counts as cell-based, human. The conditions noted are these: nuclear fraction normalized with topoisomerase, FIG. 1B. In general terms: Immunoblotting shows a protein as a band on a membrane.
Method: In order to address the role of AhR and SRC in this process, a sub-cellular localization was confirmed by immunoblotting following cellular fractionation. […] Cells were washed with cold PBS and cellular fractions were isolated per manufactures instructions using a NE-PER Extraction kit. The nuclear and cytoplasmic fractions were analyzed by western blotting for AhR and AR protein expression. The relative level of cytoplasmic AhR & AR were normalized with β-tubulin expression and the relative level of nuclear AhR & AR were normalized with topoisomerase expression. Blots are representative of three independent experiments.
Data set [2] concerns the target T1, AhR (Homo sapiens, UniProt P35869).
T1 sequence (P35869 11-848): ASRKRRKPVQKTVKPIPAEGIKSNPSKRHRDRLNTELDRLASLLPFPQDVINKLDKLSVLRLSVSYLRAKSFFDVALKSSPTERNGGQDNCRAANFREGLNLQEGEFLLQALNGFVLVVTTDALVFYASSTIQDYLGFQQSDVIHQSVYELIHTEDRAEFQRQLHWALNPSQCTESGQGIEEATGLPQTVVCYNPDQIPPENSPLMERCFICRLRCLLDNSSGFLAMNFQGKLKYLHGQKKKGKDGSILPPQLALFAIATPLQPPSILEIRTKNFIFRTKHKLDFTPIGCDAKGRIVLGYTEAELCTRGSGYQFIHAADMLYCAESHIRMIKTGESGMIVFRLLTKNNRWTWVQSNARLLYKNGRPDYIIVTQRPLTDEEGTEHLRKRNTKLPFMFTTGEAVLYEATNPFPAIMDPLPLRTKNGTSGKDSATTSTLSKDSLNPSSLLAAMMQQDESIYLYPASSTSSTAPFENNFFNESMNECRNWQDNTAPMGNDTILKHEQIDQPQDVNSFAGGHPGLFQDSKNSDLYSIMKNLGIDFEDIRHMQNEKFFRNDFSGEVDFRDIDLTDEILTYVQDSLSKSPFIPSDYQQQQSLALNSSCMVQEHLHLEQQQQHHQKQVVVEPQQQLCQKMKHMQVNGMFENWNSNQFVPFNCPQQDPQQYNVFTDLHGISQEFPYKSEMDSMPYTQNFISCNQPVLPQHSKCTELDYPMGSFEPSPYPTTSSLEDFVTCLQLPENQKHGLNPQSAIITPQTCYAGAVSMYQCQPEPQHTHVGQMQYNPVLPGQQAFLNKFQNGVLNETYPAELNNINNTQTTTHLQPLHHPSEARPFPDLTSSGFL
The conditions noted are these: even at 100 micromolar; cited from earlier work.

Data set [3] concerns AhR. The data set is described as follows: qRT-PCR of AhR mRNA expression in C4-2 cells. Particulars: 50 μM CH223191 or 30 μM PP2 alone or in combination, 72 h, normalized to L-19. (Quantitative PCR measures a nucleic acid by following its amplification.)
Method: (§1) RNA Extraction and Quantitative qRT-PCR Analysis: Total RNA was isolated from cell monolayers grown in 100 mm tissue culture dishes using RNeasy Mini Kit (Qiagen). 2 μg of the total RNA was reverse-transcribed using the Superscript II kit (Invitrogen), according to the manufacturer's recommendations. The cDNA served as a template in a 25 μl reaction mixture and was processed using the following protocol: an initial denaturation at 95° C. for 3 min, followed by 39 amplification cycles (95° C. for 10 s and 55-65° C. for 30 s), 95° C. for 10 s, 65° C. for 5 s and 95° C. for 50 s. The 25 μl qPCR reaction mixture was mixed with GoTaq qPCR Master Mix (Promega). Melt curve analyses were performed after each run to ensure a single product. Relative gene expression was determined using the ΔΔCq calculation method.
(§2) Primers to amplify the 470-bp cDNA fragment encoding L19 were used as an internal control. L-19: Forward (5′-3′) [sequence] & Reverse (5′-3′) [sequence].
(§3) Each bar represents mean±SEM (n=3) and were analyzed by student t-test. (*) denotes statistically significant differences (*P<0.05) compared to control.
Data set [4] relates to AhR. The data set is described as follows: Cignal XRE luciferase reporter assay in C4-2 cells. It counts as cell-based, human. The conditions noted are these: C4-2 cells transfected with XRE reporter, FIG. 2A. The procedure:
XRE and ARE Binding: 4×10^4 Cells were plated in a 96 well plate. C4-2 cells were transfected with XRE and ARE reporter, as well as with positive and negative control reporter plasmids using attractene. After 16 hours of transfection, media was changed to standard assay media (DMEM+0.5% FBS+0.1 mM NEAA). Cells were grown for an additional 8 hours under normal cell conditions. After 24 hours of transfection, treat the cells and harvested cells 18 hours after treatment. A dual luciferase assay was performed after 42 hours of transfection, and promoter activity values are expressed as arbitrary florescence units (AFU). Experiments were performed in triplicate and the standard error is indicated.
The Cignal XRE and ARE luciferase reporter assays were utilized to determine the activity of AhR and AR signaling pathways in androgen independent (C4-2) prostate cancer cells in the presence and absence of inhibitors. C4-2 cells were transfected with an XRE reporter plasmid & ARE reporter plasmid, as well as with positive and negative control reporter plasmids using attractene. Following transfection, treatments were added to each appropriate plate. A dual luciferase assay was performed and promoter activity values are expressed as arbitrary florescence units (AFU).
(In general: Reporter assays use an easily measured gene product as a stand-in for the process of interest.)

Data set [5] concerns AR. Kind of data set: Cignal ARE luciferase reporter assay in C4-2 cells. It counts as cell-based, human. Particulars: C4-2 cells transfected with ARE reporter, FIG. 2B.
Method: The Cignal XRE and ARE luciferase reporter assays were utilized to determine the activity of AhR and AR signaling pathways in androgen independent (C4-2) prostate cancer cells in the presence and absence of inhibitors. C4-2 cells were transfected with an XRE reporter plasmid & ARE reporter plasmid, as well as with positive and negative control reporter plasmids using attractene. Following transfection, treatments were added to each appropriate plate. A dual luciferase assay was performed and promoter activity values are expressed as arbitrary florescence units (AFU). Each bar represents mean±SEM (n=3) and were analyzed by student t-test. (*) denotes statistically significant differences (*P<0.0001).
Data set [6] has as its system C4-2 prostate cancer cells. The data set is described as follows: Promega CellTiter 96 Cell Proliferation Assay. It counts as cell-based, human. Particulars: 50 μM CH223191, 30 μM PP2 alone or in combination.
For data set [7], the system named is KLK3. The conditions noted are these: C4-2 cells, 50 μM CH223191 or 30 μM PP2 alone or in combination, 72 h, normalized to L-19.
Method: as §1, §2, §3
For data set [8], the system named is C4-2 prostate cancer cells. The data set is described as follows: Cell cycle analysis. The conditions noted are these: C4-2 cells, 72 hrs; 50 μM CH223191, 30 μM PP2 alone or in combination, FIG. 4B. It counts as cell-based, human.
The target in data set [9] is T1, AhR. Particulars: cited from earlier work.
Data set [10] has as its system CYP1B1. The data set is described as follows: qRT-PCR of CYP1B1 mRNA expression in C4-2 cells. The conditions noted are these: 50 μM CH223191 or 30 μM PP2 alone or in combination, 72 h, normalized to L-19.
Method: as §1, §2, §3
The subject of data set [11] is AR. Kind of data set: qRT-PCR of AR mRNA expression in C4-2 cells. The conditions noted are these: 50 μM CH223191 or 30 μM PP2 alone or in combination, 72 h, normalized to L-19.
Method: as §1, §2, §3
The target in data set [12] is T2, estrogen receptor (Homo sapiens, UniProt P03372).
T2 sequence (P03372 1-595): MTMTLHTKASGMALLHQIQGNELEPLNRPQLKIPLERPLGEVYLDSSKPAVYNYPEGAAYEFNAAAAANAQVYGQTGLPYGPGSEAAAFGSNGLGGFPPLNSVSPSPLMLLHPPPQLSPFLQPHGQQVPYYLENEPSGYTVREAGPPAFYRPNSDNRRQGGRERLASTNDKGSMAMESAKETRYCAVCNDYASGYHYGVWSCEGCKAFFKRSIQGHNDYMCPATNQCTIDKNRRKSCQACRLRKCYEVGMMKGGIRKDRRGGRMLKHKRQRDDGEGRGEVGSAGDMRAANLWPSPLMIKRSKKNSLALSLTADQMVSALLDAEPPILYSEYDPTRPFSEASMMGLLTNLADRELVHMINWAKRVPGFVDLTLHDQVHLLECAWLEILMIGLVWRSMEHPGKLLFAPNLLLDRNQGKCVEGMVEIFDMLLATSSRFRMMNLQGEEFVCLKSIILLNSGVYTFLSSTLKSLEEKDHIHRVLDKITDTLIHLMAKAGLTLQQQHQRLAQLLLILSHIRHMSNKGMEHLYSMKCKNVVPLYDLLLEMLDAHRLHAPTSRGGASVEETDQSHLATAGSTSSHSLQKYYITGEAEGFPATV
The conditions noted are these: cited from earlier work.

The values that follow come from patent US11103518B2, “Prostate cancer treatment via synergistic inhibition of aryl hydrocarbon receptor (AhR) and SRC” (Clark Atlanta University, Inc., priority 2016, dated 2021).

SMILES strings stand for the structures.

Regarding `Cc1ccccc1/N=N/c1ccc(NC(=O)c2ccnn2C)c(C)c1` [CH223191, 2-Methyl-2H-pyrazole-3-carboxylic acid (2-methyl-4-o-tolylazo-phenyl)-amide], the “presence of AR in the nucleus (AR nuclear localization)” value in data set [1] was “reduced”. Also, the “stimulation of AhR-dependent transcription (agonist activity)” value in data set [2] is listed as “did not stimulate”. In addition, in [3], the “reduction of AhR gene expression compared to control” value is listed as “more than twofold”. Besides, the “decrease in AhR promoter activity (XRE binding) compared to DMSO” value in [4] was found to be 30%. Also, in data set [5], the “reduction of AR promoter activity compared to DMSO in ARE binding assay” value stood at 70%. Besides, the “growth of C4-2 cells” value in data set [6] (48 and 72 hours) is on record as “significantly inhibited”. In addition, the “decrease in overall growth rate compared to DMSO” value in [6] (after 72 hours of exposure) stood at 25%. Also, the “decrease in KLK3 mRNA expression” value in [7] stood at 65%. Moreover, the “percent of cells in the G0/G1 phase of the cell cycle” value in [8] is reported as “increase”. Besides, the “TCDD-mediated nuclear translocation and DNA binding of AhR” value in data set [9] was “inhibited”. In addition, the “reduction of CYP1B1 gene expression compared to control” value in [10] was “more than twofold”. Besides, the “reduction of AR gene expression” value in data set [11] is given as 60%. Besides, the “affinity for the estrogen receptor” value in data set [12] was “no affinity”.
